Measurements published in patent US11952365B2, “Anti-viral compounds” (Aligos Therapeutics, Inc., priority 2020, dated 2024).
Where two headings read alike, the source gives them in different places.

Columns and labels:
[1] = system: human beta-coronavirus OC43; assay: microbe, parasite or virus in culture; format: cell-based; conditions: Betacoronavirus 1, OC43, HeLa, 144 h, OC43 in HeLa cells, 6 days at 33° C., class symbols; read-out: EC50
HRV3C = HRV3C (Human rhinovirus 14, UniProt P03303); assay: HRV3C protease assay (duplex, SAMDI-MS); format: biochemical, HRV; conditions: 30 mins preincubation
How it was run: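 Steps: enzymes (HRV3C plus 3CLpro) and compound preincubated 30 min; two peptide substrates added; 30 min reaction at ambient temperature; formic acid quench; SAMDI capture and reflector-positive TOF analysis. Product quantified against internal standard peptides. IC50 by four-parameter equation.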

[2] = Cytotoxicity plates without OC43 virus (cell-titer-glo); format: cell-based, human; conditions: human; HeLa cells without OC43 virus, class symbols
How it was run: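 HeLa cells seeded overnight, then treated with serially diluted compounds in 2% FBS EMEM, uninfected, in parallel with the OC43 antiviral plates. Incubated 6 days at 33 °C; viability read by CellTiter-Glo luminescence.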

human cathepsin L = molecular target: T1, human cathepsin L (Homo sapiens, UniProt P07711); assay: cathepsin L assay; format: biochemical; conditions: 10 pM human cathepsin L, Z-FR-AMC 2 μM, class symbols
T1 construct: purchased R&D Systems
How it was run: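 Human cathepsin L at 10 pM was preincubated 30 min with compound, then reaction started with Z-FR-AMC (2 μM final). Fluorescence (355/460 nm) read every 2 min for 30 min; IC50 from four-parameter curve fit.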

3CLpro = 3CLpro (Severe acute respiratory syndrome coronavirus 2, UniProt P0DTD1); assay: SARS-CoV-2 3CLpro protease assay (duplex, SAMDI-MS); format: biochemical; set-up: For the duplex assay, 3CLpro and HRV3C was added; conditions: 3CLpro, 30 mins preincubation, class symbols; read-out: SARS-Cov-2 IC50
[3] = system: SARS-CoV-2-GHB-03021/2020; assay: SARS-CoV-2 Infection Model in Huh7 Cells; format: cell-based; conditions: Severe acute respiratory syndrome coronavirus 2, Huh-7, 96 h, SARS-CoV-2, day 4 p.i., MTS, class symbols
in vitro = conditions: human
[4] = HRV3C, bound, read-out: HRV IC50

SMILES | EC50 [1] [µM] | IC50 (HRV3C; HRV3C, class symbols, read-out: HRV IC50) [µM] | CC50 at 6 days [2] [µM] | IC50 (human cathepsin L) [µM] | IC50 (3CLpro) [µM] | EC50 [3] [µM] | CC50 (in vitro) [µM] | IC50 (HRV3C; [4]) [µM] | IC50 (HRV3C; HRV IC50, HRV3C, bound) [µM]
COc1cccc2[nH]c(C(=O)N3C[C@H]4[C@@H]([C@H]3C(=O)N[C@@H](C[C@@H]3CCCNC3=O)C(=O)C(=O)NC3CC3)C4(C)C)cc12 [Compound 57, (3S)—N-cyclopropyl-3-{[(1R,2S,5S)-3-(4-methoxy-1H-indole-2-carbonyl)-6,6-dimethyl-3-azabicyclo[3.1.0]hexan-2-yl]formamido}-2-oxo-4-[(3S)-2-oxopiperidin-3-yl]butanamide] | 0.1 to 1 | 0.2 to 2 | > 10 | ≥ 10 | 0.02 to 0.2 | 1 to 10 | > 100 |  | 
N#Cc1cccc2[nH]c(C(=O)N3C[C@@H]4CCC[C@@H]4[C@H]3C(=O)N[C@@H](C[C@@H]3CCNC3=O)C(=O)CO)cc12 [Compound 66, (1S,3aR,6aS)-2-(4-cyano-1H-indole-2-carbonyl)-N-[(2S)-4-hydroxy-3-oxo-1-[(3S)-2-oxopyrrolidin-3-yl]butan-2-yl]-hexahydro-1H-cyclopenta[c]pyrrole-1-carboxamide] | 1 to 10 |  | > 10 | ≥ 10 | 0.02 to 0.2 | 10 to 100 | > 100 | > 10 | 
N#Cc1cccc2[nH]c(C(=O)N3C[C@@H]4CCC[C@@H]4[C@H]3C(=O)NC(C[C@@H]3CCNC3=O)C(=O)COCc3ccccc3)cc12 (stereo partly drawn) [Compound 66A, (1S,3aR,6aS)—N-[4-(benzyloxy)-3-oxo-1-[(3S)-2-oxopyrrolidin-3-yl]butan-2-yl]-2-(4-cyano-1H-indole-2-carbonyl)-hexahydro-1H-cyclopenta[c]pyrrole-1-carboxamide] | 0.1 to 1 |  | > 10 | ≥ 10 | 0.2 to 2 | 1 to 10 | > 10 | > 10 | 
COc1ccnc2[nH]c(C(=O)N3C[C@@H]4CCC[C@@H]4[C@H]3C(=O)N[C@@H](C[C@@H]3CCNC3=O)C(=O)CO)cc12 [Compound 67, (1S,3aR,6aS)—N-[(2S)-4-hydroxy-3-oxo-1-[(3S)-2-oxopyrrolidin-3-yl]butan-2-yl]-2-{4-methoxy-1H-pyrrolo[2,3-b]pyridine-2-carbonyl}-hexahydro-1H-cyclopenta[c]pyrrole-1-carboxamide] | 1 to 10 |  | > 10 | ≥ 10 | 0.02 to 0.2 | 10 to 100 | > 100 | > 10 | 
COc1c(Cl)ccc2[nH]c(C(=O)N3C[C@@H]4CCC[C@@H]4[C@H]3C(=O)N[C@@H](C[C@@H]3CCNC3=O)C(=O)CO)cc12 [Compound 68, (1S,3aR,6aS)-2-(5-chloro-4-methoxy-1H-indole-2-carbonyl)-N—((S)-4-hydroxy-3-oxo-1-((S)-2-oxopyrrolidin-3-yl)butan-2-yl)octahydrocyclopenta[c]pyrrole-1-carboxamide] | 0.1 to 1 |  | > 10 | ≥ 10 | 0.02 to 0.2 | 1 to 10 | > 100 | > 10 | 
COCC(=O)[C@H](C[C@@H]1CCNC1=O)NC(=O)[C@@H]1[C@H]2CCC[C@H]2CN1C(=O)c1cc2c(OC)cccc2[nH]1 [Compound 71, (1S,3aR,6aS)-2-(4-methoxy-1H-indole-2-carbonyl)-N-[(2S)-4-methoxy-3-oxo-1-[(3S)-2-oxopyrrolidin-3-yl]butan-2-yl]-hexahydro-1H-cyclopenta[c]pyrrole-1-carboxamide] | 0.1 to 1 |  | > 10 | ≥ 10 | 0.2 to 2 | 1 to 10 | > 100 |  | > 10
COc1cccc2oc(C(=O)N3C[C@@H]4CCC[C@@H]4[C@H]3C(=O)N[C@@H](C[C@@H]3CCNC3=O)C(=O)CO)cc12 [Compound 94, (1S,3aR,6aS)—N-[(2S)-4-hydroxy-3-oxo-1-[(3S)-2-oxopyrrolidin-3-yl]butan-2-yl]-2-(4-methoxy-1-benzofuran-2-carbonyl)-hexahydro-1H-cyclopenta[c]pyrrole-1-carboxamide] | 1 to 10 |  | > 10 | ≥ 10 | 0.2 to 2 | 10 to 100 | > 100 | > 10 | 
